# Species: Rattus norvegicus
# Assay: Open TG-GATES - Regimen: Single
# Assay type: toxicity, organism-based, Sprague-Dawley
# Parameters: regimen Single, gender Male, age 6 weeks
# Conditions: in vivo, po, 15 mg/kg, route gavage, dose level Low; for APTT / Bas / Eos / Fbg / Hb / Ht / Lym / MCHC / MCV / Mono / Neu / PT / Plat / RBC / Ret / WBC: tissue Blood; for KIDNEY_L / KIDNEY_R / KIDNEY_TOTAL: tissue Kidney; for LIVER: tissue Liver; for ALP / ALT / AST / BUN / CRE / Ca / Cl / DBIL / GLC / IP / K / LDH / Na / PL / RALB / TBIL / TC / TG / TP / gamma-GTP: tissue Plasma
compound,measurement,setting,value
C1CCC(C(CC2CCCCN2)C2CCCCC2)CC1 (centres undefined) [PERHEXILINE],TERMINAL_BW,3 h,217 g
same,APTT,3 h,20.2 s
same,Bas,3 h,0%
same,Eos,3 h,0.6%
same,Fbg,3 h,331 mg/dL
same,Hb,3 h,13.3 g/dL
same,Ht,3 h,39.6%
same,Lym,3 h,79.8%
same,MCHC,3 h,33.5%
same,MCV,3 h,63.8 fL
same,Mono,3 h,1.8%
same,Neu,3 h,16.8%
same,PT,3 h,15.6 s
same,Plat,3 h,121.9 x10_4/uL
same,RBC,3 h,620.8 x10_4/ul
same,Ret,3 h,7.8%
same,WBC,3 h,62.3 x10_2/uL
same,KIDNEY_L,3 h,1 g
same,KIDNEY_R,3 h,1 g
same,KIDNEY_TOTAL,3 h,1.9 g
same,LIVER,3 h,10.1 g
same,ALP,3 h,1601.6 IU/L
same,ALT,3 h,47 IU/L
same,AST,3 h,74 IU/L
same,BUN,3 h,13 mg/dL
same,CRE,3 h,0.1 mg/dL
same,Ca,3 h,11 mg/dL
same,Cl,3 h,105.6 meq/L
same,DBIL,3 h,0.002 mg/dL
same,GLC,3 h,181.2 mg/dL
same,IP,3 h,8.6 mg/dL
same,K,3 h,4 meq/L
same,LDH,3 h,183.8 IU/L
same,Na,3 h,140.8 meq/L
same,PL,3 h,149.4 mg/dL
same,RALB,3 h,3.2 g/dL
same,TBIL,3 h,0.022 mg/dL
same,TC,3 h,81.2 mg/dL
same,TG,3 h,90.2 mg/dL
same,TP,3 h,5.7 g/dL
same,gamma-GTP,3 h,0.6 IU/L
same,TERMINAL_BW,6 h,212 g
same,APTT,6 h,20.7 s
same,Bas,6 h,0%
same,Eos,6 h,0.8%
same,Fbg,6 h,320.2 mg/dL
same,Hb,6 h,13.1 g/dL
same,Ht,6 h,39.6%
same,Lym,6 h,79.6%
same,MCHC,6 h,33.1%
same,MCV,6 h,64.4 fL
same,Mono,6 h,2%
same,Neu,6 h,16.4%
same,PT,6 h,15.6 s
same,Plat,6 h,134.6 x10_4/uL
same,RBC,6 h,615.4 x10_4/ul
same,Ret,6 h,7.9%
same,WBC,6 h,77.4 x10_2/uL
same,KIDNEY_L,6 h,1 g
same,KIDNEY_R,6 h,1 g
same,KIDNEY_TOTAL,6 h,2 g
same,LIVER,6 h,9.5 g
same,ALP,6 h,1590.2 IU/L
same,ALT,6 h,39 IU/L
same,AST,6 h,70 IU/L
same,BUN,6 h,10.6 mg/dL
same,CRE,6 h,0.1 mg/dL
same,Ca,6 h,10.9 mg/dL
same,Cl,6 h,105.8 meq/L
same,DBIL,6 h,0 mg/dL
same,GLC,6 h,170.4 mg/dL
same,IP,6 h,9.5 mg/dL
same,K,6 h,4.4 meq/L
same,LDH,6 h,209.6 IU/L
same,Na,6 h,139.2 meq/L
same,PL,6 h,134.6 mg/dL
same,RALB,6 h,3.1 g/dL
same,TBIL,6 h,0.018 mg/dL
same,TC,6 h,77.2 mg/dL
same,TG,6 h,73.6 mg/dL
same,TP,6 h,5.6 g/dL
same,gamma-GTP,6 h,1 IU/L
same,TERMINAL_BW,9 h,204.6 g
same,APTT,9 h,21.4 s
same,Bas,9 h,0%
same,Eos,9 h,0.8%
same,Fbg,9 h,303.4 mg/dL
same,Hb,9 h,12.8 g/dL
same,Ht,9 h,38.4%
same,Lym,9 h,76.2%
same,MCHC,9 h,33.5%
same,MCV,9 h,62.1 fL
same,Mono,9 h,1.6%
same,Neu,9 h,21%
same,PT,9 h,15.5 s
same,Plat,9 h,127.1 x10_4/uL
same,RBC,9 h,619.8 x10_4/ul
same,Ret,9 h,7%
same,WBC,9 h,67.3 x10_2/uL
same,KIDNEY_L,9 h,1 g
same,KIDNEY_R,9 h,1 g
same,KIDNEY_TOTAL,9 h,2 g
same,LIVER,9 h,8.9 g
same,ALP,9 h,1312.6 IU/L
same,ALT,9 h,38 IU/L
same,AST,9 h,65.8 IU/L
same,BUN,9 h,10.2 mg/dL
same,CRE,9 h,0.1 mg/dL
same,Ca,9 h,11 mg/dL
same,Cl,9 h,105.6 meq/L
same,DBIL,9 h,0.004 mg/dL
same,GLC,9 h,172 mg/dL
same,IP,9 h,9.4 mg/dL
same,K,9 h,3.9 meq/L
same,LDH,9 h,186.2 IU/L
same,Na,9 h,139.6 meq/L
same,PL,9 h,124.4 mg/dL
same,RALB,9 h,3.1 g/dL
same,TBIL,9 h,0.014 mg/dL
same,TC,9 h,68.8 mg/dL
same,TG,9 h,49.2 mg/dL
same,TP,9 h,5.7 g/dL
same,gamma-GTP,9 h,1 IU/L
same,TERMINAL_BW,24 h,216.9 g
same,APTT,24 h,20.4 s
same,Bas,24 h,0%
same,Eos,24 h,0.8%
same,Fbg,24 h,319.6 mg/dL
same,Hb,24 h,13.3 g/dL
same,Ht,24 h,39.1%
same,Lym,24 h,77.8%
same,MCHC,24 h,34.1%
same,MCV,24 h,63.5 fL
same,Mono,24 h,1.8%
same,Neu,24 h,18.6%
same,PT,24 h,15.8 s
same,Plat,24 h,130.2 x10_4/uL
same,RBC,24 h,616.8 x10_4/ul
same,Ret,24 h,6.2%
same,WBC,24 h,108.7 x10_2/uL
same,KIDNEY_L,24 h,1 g
same,KIDNEY_R,24 h,1 g
same,KIDNEY_TOTAL,24 h,1.9 g
same,LIVER,24 h,10 g
same,ALP,24 h,1593 IU/L
same,ALT,24 h,47 IU/L
same,AST,24 h,70.6 IU/L
same,BUN,24 h,17 mg/dL
same,CRE,24 h,0.1 mg/dL
same,Ca,24 h,10.8 mg/dL
same,Cl,24 h,106.8 meq/L
same,DBIL,24 h,0 mg/dL
same,GLC,24 h,185.6 mg/dL
same,IP,24 h,7.1 mg/dL
same,K,24 h,4.1 meq/L
same,LDH,24 h,212.8 IU/L
same,Na,24 h,142 meq/L
same,PL,24 h,158.8 mg/dL
same,RALB,24 h,3.2 g/dL
same,TBIL,24 h,0.012 mg/dL
same,TC,24 h,81.8 mg/dL
same,TG,24 h,122 mg/dL
same,TP,24 h,5.7 g/dL
same,gamma-GTP,24 h,1 IU/L
